{
  "source": "paper PMC6563033",
  "about": "“Purification and Characterization of Antioxidant Peptides Derived from Protein Hydrolysate of the Marine Bivalve Mollusk Tergillarca granosa” (Marine Drugs, 2019)",
  "format_in_all_cases": "biochemical",
  "key": {"[1]": {"assay": "DPPH radical scavenging activity", "details": "isolated APs; 0.02% ethanolic DPPH; EC50 from linear relation of scavenging rate and concentration; mean ± SD, n = 3", "procedure": "(§1) The DPPH radical, hydroxyl radical, superoxide anion radical, and ABTS cation radical scavenging activities were measured according to the previous methods. The results were expressed as a half elimination ratio (EC50) defined as the concentration by which a sample caused a 50% decrease of the initial concentration of DPPH radical, hydroxyl radical, superoxide anion radical, and ABTS cation radical, respectively, and the calculation method of EC50 was according to linear relationship of radical scavenging rates and concentrations of samples [6, 26].\nTwo millilitres of samples consisting of DW and different concentrations of the analytes were placed in cuvettes, and 500 μL of an ethanolic solution of DPPH (0.02%) and 1.0 mL of ethanol were added. A control sample containing the DPPH solution without the sample was also prepared. In the blank, the DPPH solution was substituted with ethanol. The antioxidant activity of the sample was evaluated using the inhibition percentage of the DPPH radical with the following equation: DPPH radical scavenging activity (%) = (A0 + Ab − A)/A0 × 100% (2) where A is the absorbance rate of the sample, A0 is the control group absorbance, and Ab is the blank absorbance."}, "[2]": {"assay": "Hydroxyl radical scavenging activity (1,10-phenanthroline/FeSO4/H2O2)", "details": "isolated APs; 37 °C, 60 min, absorbance 536 nm; mean ± SD, n = 3", "procedure": "as §1\nFirst, 1.0 mL of a 1.87 mM 1,10-phenanthroline solution and 2.0 mL of the sample were added to a screw-capped tube and mixed. Then, 1.0 mL of a FeSO4·7H2O solution (1.87 mM) was added to the mixture. The reaction was initiated by adding 1.0 mL of H2O2 (0.03%, v/v). After being incubated at 37 °C for 60 min in a water bath, the absorbance of the reaction mixture was measured at 536 nm against a reagent blank. […] The hydroxyl radical scavenging activity was calculated using the following formula: Hydroxyl radical scavenging activity (%) = [(As − An)/(Ab − An)] × 100% (3) where As, An, and Ab are the absorbance values determined at 536 nm of the sample, the negative control, and the blank after the reaction, respectively."}, "[3]": {"assay": "Superoxide anion radical scavenging activity (NBT/NADH/PMS)", "details": "isolated APs; 25 °C, 5 min, absorbance 560 nm; mean ± SD, n = 3", "procedure": "as §1\nThe superoxide anions were generated in 1 mL of nitrotetrazolium blue chloride (2.52 mM), 1 mL of nicotinamide adenine dinucleotide hydride (NADH) ([…]) and 1 mL of different sample concentrations. The reaction was initiated by adding 1 ml of phenazine methosulphate solution (120 μM) to the reaction mixture. The absorbance was measured at 560 nm against the corresponding blank after 5 min incubation at 25 °C. The superoxide anion radical scavenging capacity was calculated using the following equation: Superoxide anion radical scavenging activity (%) = [(Acontrol − Asample)/Acontrol] × 100% (4) where Acontrol is the absorbance without sample and Asample is the absorbance with sample."}, "[4]": {"assay": "ABTS cation radical scavenging activity", "details": "isolated APs; 5 mM PBS pH 7.4, 10 min, absorbance 734 nm; mean ± SD, n = 3", "procedure": "as §1\nThe ABTS radical cation was generated by mixing ABTS stock solution (7 mM) with potassium persulphate (2.45 mM). The mixture was left in the dark at room temperature for 16 h. The ABTS radical solution was diluted in 5 mM PBS pH 7.4, to an absorbance of 0.70 ± 0.02 at 734 nm. One milliliter of diluted ABTS radical solution was mixed with one milliliter of different concentrations of samples. 10 min later, the absorbance was measured at 734 nm against the corresponding blank. The ABTS scavenging activity of samples was calculated using the following equation: ABTS scavenging activity (%) = [(Acontrol − Asample)/Acontrol] × 100% (5) where Acontrol is the absorbance without sample and Asample is the absorbance with sample."}},
  "note": "Marks after values point to notes of the source that are not given here. No end group written: not given here.",
  "data": [
    {"substance": "WIDPDG [TGP-2, antioxidant peptide from blood cockle (T. granosa) protein hydrolysate]", "values": [
      {"measurement": "Half Elimination Ratio (EC50) DPPH Radical", "setting": "[1]", "value": "1.82 ± 0.16 ^c mg/mL"},
      {"measurement": "Half Elimination Ratio (EC50) Hydroxyl Radical", "setting": "[2]", "value": "1.54 ± 0.11 ^b mg/mL"},
      {"measurement": "Half Elimination Ratio (EC50) Superoxide Anion Radical", "setting": "[3]", "value": "2.49 ± 0.17 ^b mg/mL"},
      {"measurement": "Half Elimination Ratio (EC50) ABTS Cation Radical", "setting": "[4]", "value": "2.56 ± 0.23 ^b mg/mL"}
    ]}
  ]
}
